In ChEMBL document CHEMBL5291721, “A preclinical secondary pharmacology resource illuminates target-adverse drug reaction associations of marketed drugs” (Nat Commun, 2023) one finds AC50 data, which are given here for 7 molecules.

Structures are written as SMILES.

Experiment [1] deals with Bile salt export pump (Homo sapiens, UniProt O95342). It is filed as functional.
For experiment [2], the target named is T1, Adenosine receptor A1 (Homo sapiens, UniProt P30542).
T1 sequence (P30542 whole entry): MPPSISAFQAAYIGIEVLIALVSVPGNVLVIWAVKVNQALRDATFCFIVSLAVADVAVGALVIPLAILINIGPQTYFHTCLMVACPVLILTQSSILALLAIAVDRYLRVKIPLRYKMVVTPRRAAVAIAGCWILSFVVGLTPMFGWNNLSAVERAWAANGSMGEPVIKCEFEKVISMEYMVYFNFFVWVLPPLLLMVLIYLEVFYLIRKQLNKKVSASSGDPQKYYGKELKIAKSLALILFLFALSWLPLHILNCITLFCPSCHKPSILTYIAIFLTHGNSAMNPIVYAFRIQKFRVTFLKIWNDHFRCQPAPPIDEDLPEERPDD

The target of experiment [3] is Adenosine receptor A2a (Homo sapiens, UniProt P29274).
The target in experiment [4] is T2, Alpha-2A adrenergic receptor (Homo sapiens, UniProt P08913).
T2 sequence (P08913 whole entry): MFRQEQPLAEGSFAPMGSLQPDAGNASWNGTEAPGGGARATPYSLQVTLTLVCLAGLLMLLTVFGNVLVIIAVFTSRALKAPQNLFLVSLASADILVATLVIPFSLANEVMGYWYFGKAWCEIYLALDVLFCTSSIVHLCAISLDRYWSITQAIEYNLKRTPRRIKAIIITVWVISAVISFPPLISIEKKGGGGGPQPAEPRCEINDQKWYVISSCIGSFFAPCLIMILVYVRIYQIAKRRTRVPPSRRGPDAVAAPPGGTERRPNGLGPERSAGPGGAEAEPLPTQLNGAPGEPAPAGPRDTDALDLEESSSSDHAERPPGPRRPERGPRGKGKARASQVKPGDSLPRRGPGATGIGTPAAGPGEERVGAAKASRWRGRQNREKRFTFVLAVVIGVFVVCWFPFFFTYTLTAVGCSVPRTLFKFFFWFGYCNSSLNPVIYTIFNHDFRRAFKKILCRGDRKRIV
The experiment is classed as functional, cell-based.

The target of experiment [5] is T2, Alpha-2A adrenergic receptor. The experiment is classed as functional, cell-based. The source holds these as a separate data set.
In experiment [6] the target is T3, Alpha-2C adrenergic receptor (Homo sapiens, UniProt P18825).
T3 sequence (P18825 whole entry): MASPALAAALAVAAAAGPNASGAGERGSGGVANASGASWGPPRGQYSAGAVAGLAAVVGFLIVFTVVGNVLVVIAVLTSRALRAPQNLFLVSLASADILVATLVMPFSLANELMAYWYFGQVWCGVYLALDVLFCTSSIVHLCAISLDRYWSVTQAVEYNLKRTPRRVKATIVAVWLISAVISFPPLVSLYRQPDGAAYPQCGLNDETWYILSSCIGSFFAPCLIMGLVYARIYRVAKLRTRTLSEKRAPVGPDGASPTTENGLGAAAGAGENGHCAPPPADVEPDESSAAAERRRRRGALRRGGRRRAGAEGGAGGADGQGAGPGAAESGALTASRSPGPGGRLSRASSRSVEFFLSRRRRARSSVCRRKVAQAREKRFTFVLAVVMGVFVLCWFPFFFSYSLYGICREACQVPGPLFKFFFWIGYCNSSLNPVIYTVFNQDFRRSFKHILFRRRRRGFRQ
It is filed as functional.

Experiment [7] deals with Beta-1 adrenergic receptor (Homo sapiens, UniProt P08588). The experiment is classed as functional.
The target in experiment [8] is T4, Cholecystokinin receptor type A (Homo sapiens, UniProt P32238).
T4 sequence (P32238 whole entry): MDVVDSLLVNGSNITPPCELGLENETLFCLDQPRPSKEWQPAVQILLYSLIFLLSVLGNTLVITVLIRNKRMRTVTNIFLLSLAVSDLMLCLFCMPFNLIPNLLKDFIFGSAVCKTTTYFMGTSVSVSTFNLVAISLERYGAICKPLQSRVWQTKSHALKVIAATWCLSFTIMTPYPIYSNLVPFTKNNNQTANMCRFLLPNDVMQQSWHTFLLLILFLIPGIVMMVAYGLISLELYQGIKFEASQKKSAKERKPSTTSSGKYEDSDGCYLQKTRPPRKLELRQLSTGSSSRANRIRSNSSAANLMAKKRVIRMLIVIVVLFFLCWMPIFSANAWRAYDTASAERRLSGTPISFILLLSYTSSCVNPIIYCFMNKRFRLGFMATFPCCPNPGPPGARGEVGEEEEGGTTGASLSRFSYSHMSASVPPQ

In experiment [9] the target is T5, Muscarinic acetylcholine receptor M2 (Homo sapiens, UniProt P08172).
T5 sequence (P08172 whole entry): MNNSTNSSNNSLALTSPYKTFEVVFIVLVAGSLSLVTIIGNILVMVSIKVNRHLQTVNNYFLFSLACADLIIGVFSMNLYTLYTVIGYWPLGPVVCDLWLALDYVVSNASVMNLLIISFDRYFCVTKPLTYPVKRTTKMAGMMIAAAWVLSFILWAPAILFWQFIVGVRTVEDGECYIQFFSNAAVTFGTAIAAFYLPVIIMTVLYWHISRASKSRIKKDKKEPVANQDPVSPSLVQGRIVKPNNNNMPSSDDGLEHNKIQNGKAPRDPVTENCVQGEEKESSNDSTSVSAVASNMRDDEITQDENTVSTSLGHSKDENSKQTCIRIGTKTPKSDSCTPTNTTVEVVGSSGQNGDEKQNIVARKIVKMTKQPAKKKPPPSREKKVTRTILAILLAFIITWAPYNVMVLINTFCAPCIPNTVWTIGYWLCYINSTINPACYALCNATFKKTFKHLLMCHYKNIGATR
It is filed as functional, cell-based.

Experiment [10] concerns the target Neuronal acetylcholine receptor subunit alpha-4 (Homo sapiens, UniProt P43681).
The target of experiment [11] is 5-hydroxytryptamine receptor 2B (Homo sapiens, UniProt P41595). It is filed as functional, cell-based.
Experiment [12] addresses Voltage-gated inwardly rectifying potassium channel KCNH2 (Homo sapiens, UniProt Q12809). It is filed as functional. The following applies: read-out: AC50.
For experiment [13], the target named is Melanocortin receptor 3 (Homo sapiens, UniProt P41968).
The target of experiment [14] is Motilin receptor (Homo sapiens, UniProt O43193).
Experiment [15] addresses Sodium-dependent dopamine transporter (Homo sapiens, UniProt Q01959).
The target of experiment [16] is Sodium-dependent noradrenaline transporter (Homo sapiens, UniProt P23975).
The target of experiment [17] is D(3) dopamine receptor (Homo sapiens, UniProt P35462).

The term AC50 denotes the concentration at which the activity in the assay is half-maximal.
Note: assay procedure not described here.

Sequence of Voltage-gated inwardly rectifying potassium channel KCNH2 (Q12809 whole entry): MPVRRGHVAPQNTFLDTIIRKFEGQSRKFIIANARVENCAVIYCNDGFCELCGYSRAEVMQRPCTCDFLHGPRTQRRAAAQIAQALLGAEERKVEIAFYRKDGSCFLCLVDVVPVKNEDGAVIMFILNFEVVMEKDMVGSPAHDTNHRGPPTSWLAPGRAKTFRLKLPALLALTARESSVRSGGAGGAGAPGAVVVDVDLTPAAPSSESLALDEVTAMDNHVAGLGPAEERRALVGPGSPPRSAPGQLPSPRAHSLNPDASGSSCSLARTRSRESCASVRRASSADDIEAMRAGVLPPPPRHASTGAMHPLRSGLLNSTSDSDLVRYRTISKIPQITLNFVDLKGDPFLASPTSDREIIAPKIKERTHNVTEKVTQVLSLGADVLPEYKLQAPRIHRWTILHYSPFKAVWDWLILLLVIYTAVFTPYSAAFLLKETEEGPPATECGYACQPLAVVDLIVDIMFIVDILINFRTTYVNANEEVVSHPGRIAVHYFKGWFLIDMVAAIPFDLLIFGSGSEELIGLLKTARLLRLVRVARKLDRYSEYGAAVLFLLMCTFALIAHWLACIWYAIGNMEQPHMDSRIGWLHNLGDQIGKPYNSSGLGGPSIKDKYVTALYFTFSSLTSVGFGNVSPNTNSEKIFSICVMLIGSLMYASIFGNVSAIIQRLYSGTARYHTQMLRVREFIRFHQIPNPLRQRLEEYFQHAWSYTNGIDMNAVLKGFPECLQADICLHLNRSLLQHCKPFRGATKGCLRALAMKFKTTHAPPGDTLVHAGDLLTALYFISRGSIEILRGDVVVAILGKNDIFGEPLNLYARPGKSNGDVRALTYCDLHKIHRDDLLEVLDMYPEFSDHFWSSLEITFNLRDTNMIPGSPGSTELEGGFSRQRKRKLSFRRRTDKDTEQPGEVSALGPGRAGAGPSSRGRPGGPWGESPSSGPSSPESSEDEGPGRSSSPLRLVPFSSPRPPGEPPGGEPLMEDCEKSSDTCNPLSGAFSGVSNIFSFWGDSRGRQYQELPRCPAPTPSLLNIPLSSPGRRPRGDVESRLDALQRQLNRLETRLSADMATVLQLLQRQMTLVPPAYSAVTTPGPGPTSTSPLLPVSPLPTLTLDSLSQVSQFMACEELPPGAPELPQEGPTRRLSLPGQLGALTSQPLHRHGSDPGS
Sequence of D(3) dopamine receptor (P35462 whole entry): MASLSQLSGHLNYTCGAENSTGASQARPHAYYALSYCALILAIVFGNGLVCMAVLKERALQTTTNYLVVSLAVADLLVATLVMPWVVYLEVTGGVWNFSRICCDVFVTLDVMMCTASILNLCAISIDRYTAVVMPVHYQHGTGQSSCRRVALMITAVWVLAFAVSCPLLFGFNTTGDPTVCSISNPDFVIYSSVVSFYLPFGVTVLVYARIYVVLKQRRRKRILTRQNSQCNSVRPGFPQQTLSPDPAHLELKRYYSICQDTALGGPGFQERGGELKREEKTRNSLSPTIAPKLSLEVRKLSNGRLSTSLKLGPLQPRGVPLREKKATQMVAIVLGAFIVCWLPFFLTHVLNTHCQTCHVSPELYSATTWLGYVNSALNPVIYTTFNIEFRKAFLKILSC
Sequence of Neuronal acetylcholine receptor subunit alpha-4 (P43681 whole entry): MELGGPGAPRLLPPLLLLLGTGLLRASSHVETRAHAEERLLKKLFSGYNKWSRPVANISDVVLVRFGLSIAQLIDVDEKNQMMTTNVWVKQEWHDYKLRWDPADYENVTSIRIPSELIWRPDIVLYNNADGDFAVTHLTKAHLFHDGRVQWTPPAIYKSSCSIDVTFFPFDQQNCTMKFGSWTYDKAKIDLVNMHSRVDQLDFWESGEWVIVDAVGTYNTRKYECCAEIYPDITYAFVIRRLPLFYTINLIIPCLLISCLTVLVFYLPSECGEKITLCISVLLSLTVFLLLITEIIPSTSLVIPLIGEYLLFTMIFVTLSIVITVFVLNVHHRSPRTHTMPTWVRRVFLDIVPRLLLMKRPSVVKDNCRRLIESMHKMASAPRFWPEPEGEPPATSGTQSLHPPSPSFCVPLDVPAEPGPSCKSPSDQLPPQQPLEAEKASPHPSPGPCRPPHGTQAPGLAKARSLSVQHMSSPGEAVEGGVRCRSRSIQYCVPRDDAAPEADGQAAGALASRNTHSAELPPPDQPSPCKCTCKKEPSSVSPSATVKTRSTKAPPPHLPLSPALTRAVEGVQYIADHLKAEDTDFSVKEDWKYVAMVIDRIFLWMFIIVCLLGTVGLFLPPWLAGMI
Sequence of Adenosine receptor A2a (P29274 whole entry): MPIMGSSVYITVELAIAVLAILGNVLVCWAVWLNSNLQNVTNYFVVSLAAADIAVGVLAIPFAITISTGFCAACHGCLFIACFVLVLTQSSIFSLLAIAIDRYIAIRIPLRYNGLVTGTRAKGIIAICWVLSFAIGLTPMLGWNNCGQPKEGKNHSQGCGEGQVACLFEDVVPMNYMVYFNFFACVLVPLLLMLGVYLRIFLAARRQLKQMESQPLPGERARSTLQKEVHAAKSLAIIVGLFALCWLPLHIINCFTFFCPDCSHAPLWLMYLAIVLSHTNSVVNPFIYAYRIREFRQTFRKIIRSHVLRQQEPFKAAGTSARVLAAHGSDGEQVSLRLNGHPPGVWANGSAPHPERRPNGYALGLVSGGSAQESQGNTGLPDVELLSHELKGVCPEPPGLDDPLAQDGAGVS
Sequence of Motilin receptor (O43193 whole entry): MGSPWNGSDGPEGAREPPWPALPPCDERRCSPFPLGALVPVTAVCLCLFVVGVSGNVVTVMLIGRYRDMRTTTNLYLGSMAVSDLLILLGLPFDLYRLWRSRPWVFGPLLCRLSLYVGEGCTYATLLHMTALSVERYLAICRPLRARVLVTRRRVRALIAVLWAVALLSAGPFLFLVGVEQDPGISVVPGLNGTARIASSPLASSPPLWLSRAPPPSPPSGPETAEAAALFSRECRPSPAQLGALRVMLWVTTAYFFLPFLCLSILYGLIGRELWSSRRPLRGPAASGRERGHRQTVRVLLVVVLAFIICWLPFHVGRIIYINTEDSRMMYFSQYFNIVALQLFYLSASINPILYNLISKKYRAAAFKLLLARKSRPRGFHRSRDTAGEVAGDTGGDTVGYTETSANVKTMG
Sequence of Sodium-dependent dopamine transporter (Q01959 whole entry): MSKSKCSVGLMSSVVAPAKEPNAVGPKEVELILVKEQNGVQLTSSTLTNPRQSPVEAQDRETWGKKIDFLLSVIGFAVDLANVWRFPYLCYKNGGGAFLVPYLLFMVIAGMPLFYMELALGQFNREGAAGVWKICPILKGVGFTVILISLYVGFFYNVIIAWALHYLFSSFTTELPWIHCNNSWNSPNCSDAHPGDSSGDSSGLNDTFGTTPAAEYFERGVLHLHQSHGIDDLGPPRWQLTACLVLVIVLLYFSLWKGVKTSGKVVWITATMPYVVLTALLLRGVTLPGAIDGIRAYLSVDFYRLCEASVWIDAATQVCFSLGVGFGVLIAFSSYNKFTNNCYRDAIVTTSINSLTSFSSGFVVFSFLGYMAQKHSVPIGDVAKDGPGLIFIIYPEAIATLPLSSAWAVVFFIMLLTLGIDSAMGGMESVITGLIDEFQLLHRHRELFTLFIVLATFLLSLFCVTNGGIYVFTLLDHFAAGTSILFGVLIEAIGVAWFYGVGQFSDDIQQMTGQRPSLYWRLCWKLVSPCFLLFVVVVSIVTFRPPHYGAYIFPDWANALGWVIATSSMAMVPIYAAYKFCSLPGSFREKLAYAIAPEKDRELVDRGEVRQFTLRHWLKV
Sequence of Beta-1 adrenergic receptor (P08588 whole entry): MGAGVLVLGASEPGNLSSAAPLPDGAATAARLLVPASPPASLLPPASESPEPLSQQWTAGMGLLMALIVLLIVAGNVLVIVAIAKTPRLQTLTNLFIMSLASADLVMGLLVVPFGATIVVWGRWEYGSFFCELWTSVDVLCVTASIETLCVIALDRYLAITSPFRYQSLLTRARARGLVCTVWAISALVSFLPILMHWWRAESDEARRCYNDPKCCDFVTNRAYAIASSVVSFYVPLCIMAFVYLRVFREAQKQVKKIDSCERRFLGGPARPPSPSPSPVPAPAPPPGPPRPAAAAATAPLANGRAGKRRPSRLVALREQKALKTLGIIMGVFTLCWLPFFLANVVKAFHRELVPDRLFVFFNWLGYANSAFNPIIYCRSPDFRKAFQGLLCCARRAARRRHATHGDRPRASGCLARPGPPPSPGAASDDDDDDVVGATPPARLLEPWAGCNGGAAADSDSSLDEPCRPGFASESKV
Sequence of 5-hydroxytryptamine receptor 2B (P41595 whole entry): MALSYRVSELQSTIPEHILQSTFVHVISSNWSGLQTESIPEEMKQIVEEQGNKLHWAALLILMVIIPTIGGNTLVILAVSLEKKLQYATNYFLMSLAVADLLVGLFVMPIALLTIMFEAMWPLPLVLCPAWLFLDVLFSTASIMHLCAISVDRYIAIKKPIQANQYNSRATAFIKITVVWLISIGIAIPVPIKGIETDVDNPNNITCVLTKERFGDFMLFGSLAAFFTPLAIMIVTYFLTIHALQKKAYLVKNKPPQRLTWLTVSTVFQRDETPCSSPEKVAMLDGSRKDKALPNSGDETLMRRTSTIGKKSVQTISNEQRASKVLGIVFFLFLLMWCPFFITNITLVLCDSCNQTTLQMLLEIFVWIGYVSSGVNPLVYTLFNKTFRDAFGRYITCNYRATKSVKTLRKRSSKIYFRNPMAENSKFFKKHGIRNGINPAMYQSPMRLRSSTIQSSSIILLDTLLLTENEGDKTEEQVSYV
Sequence of Melanocortin receptor 3 (P41968 whole entry): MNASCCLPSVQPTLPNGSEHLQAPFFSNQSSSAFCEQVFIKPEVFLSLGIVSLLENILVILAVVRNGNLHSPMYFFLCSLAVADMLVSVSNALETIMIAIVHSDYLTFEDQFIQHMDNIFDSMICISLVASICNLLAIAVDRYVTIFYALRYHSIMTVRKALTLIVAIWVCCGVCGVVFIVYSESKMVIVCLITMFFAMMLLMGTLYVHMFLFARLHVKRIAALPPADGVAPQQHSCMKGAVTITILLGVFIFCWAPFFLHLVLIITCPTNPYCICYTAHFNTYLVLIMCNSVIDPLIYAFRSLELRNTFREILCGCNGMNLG

In the case of `Cn1nnc2c(C(N)=O)ncn2c1=O` [TEMOZOLOMIDE], the AC50 was above 300 µM in [1]; above 30 µM in [2]; above 30 µM in [3]; above 30 µM in experiment [4]; above 30 µM in experiment [5]; above 30 µM in experiment [6]. The half-maximal activity concentration (AC50) in [7], in [8], in [9], in experiment [10], in experiment [11] and in experiment [12] was above 30 µM in each case. Besides, the AC50 in experiment [13], in experiment [14], in [15], in experiment [16] and in experiment [17] was above 30 µM throughout.
As for `O=C(OCC(O)CO)c1ccccc1Nc1ccnc2cc(Cl)ccc12` (centres undefined) [GLAFENINE], the AC50 in experiment [1] was 15 µM; in experiment [2] it was above 30 µM; in experiment [3] it was 23 µM; in experiment [4], above 30 µM; in [5] it was above 30 µM; in experiment [6], above 30 µM. In addition, the AC50 in [7] was above 30 µM; in experiment [8], above 30 µM; in [9] it was above 10 µM; in experiment [10], above 30 µM; in experiment [11], above 30 µM; in experiment [12], 1.4 µM. Further, the concentration at half-maximal activity (AC50) was above 30 µM in experiment [13]; 28 µM in experiment [14]; above 30 µM in experiment [15]; above 30 µM in [16]; above 30 µM in experiment [17].
For the molecule `CO[C@H]1C[C@@H]2CC[C@@H](C)[C@@](O)(O2)C(=O)C(=O)N2CCCC[C@H]2C(=O)O[C@H]([C@H](C)C[C@@H]2CC[C@@H](O)[C@H](OC)C2)CC(=O)[C@H](C)/C=C(\C)[C@@H](O)[C@@H](OC)C(=O)[C@H](C)C[C@H](C)/C=C/C=C/C=C/1C` [SIROLIMUS], the AC50 in [1] was 1.01 µM; in [2], above 30 µM; in [3] it was above 30 µM; in experiment [4], above 10 µM; in experiment [5], above 10 µM; in [6] it was above 10 µM. Moreover, the AC50 in experiment [7] was above 10 µM; in [8], above 30 µM; in [9] it was above 10 µM; in [10] it was above 10 µM; in experiment [11], above 10 µM; in experiment [12] it was above 30 µM. Moreover, the AC50 in experiment [13] is above 30 µM; in [14], above 10 µM; in [15], above 30 µM; in experiment [16] it was above 30 µM; in experiment [17], 0.87 µM.
Take `Cc1cn([C@H]2C=C[C@@H](CO)O2)c(=O)[nH]c1=O` [STAVUDINE]: the AC50 in experiment [1] is above 300 µM; in experiment [2], above 30 µM; in experiment [3], above 30 µM; in experiment [4], above 10 µM; in [5], above 10 µM; in experiment [6], above 10 µM. Also, the concentration at half-maximal activity (AC50) in [7] was above 10 µM; in experiment [8] it was above 30 µM; in [9], above 10 µM; in experiment [10], above 10 µM; in [11], above 10 µM; in experiment [12], above 30 µM. The AC50 in experiment [13] is above 30 µM; in [14], above 10 µM; in experiment [15] it was above 10 µM; in [16] it was above 10 µM; in [17], above 10 µM.
On to `CCOC(=O)[C@H](CCc1ccccc1)N[C@@H](C)C(=O)N1[C@H](C(=O)O)C[C@@H]2CCC[C@@H]21`, for which the concentration at half-maximal activity (AC50) in experiment [1] is above 300 µM; in [2], above 30 µM; in experiment [3], above 30 µM; in experiment [4], above 10 µM; in experiment [5] it was above 10 µM; in experiment [6], above 10 µM. The AC50 in experiment [7] was above 10 µM; in experiment [8], above 30 µM; in experiment [9], above 10 µM; in experiment [10], above 10 µM; in experiment [11], above 10 µM; in experiment [12] it was above 30 µM. The concentration at half-maximal activity (AC50) in experiment [13] was above 30 µM; in experiment [14] it was above 10 µM; in experiment [15], above 10 µM; in [16], above 10 µM; in experiment [17] it was above 10 µM.
In the case of `CC[C@H]1[C@@H](O)[C@@H]2[C@H](CC[C@]3(C)[C@@H]([C@H](C)CCC(=O)O)CC[C@@H]23)[C@@]2(C)CC[C@@H](O)C[C@@H]12` [OBETICHOLIC ACID], the concentration at half-maximal activity (AC50) in experiment [1] is above 300 µM; in experiment [2] it was above 30 µM; in [3], above 30 µM; in experiment [4], above 30 µM; in [5], 11 µM; in [6] it was above 30 µM. Also, the AC50 in [7], in experiment [8], in experiment [9], in experiment [10], in [11] and in experiment [12] was above 30 µM in each case. For the same molecule, the concentration at half-maximal activity (AC50) in experiment [13], in experiment [14], in experiment [15], in [16] and in experiment [17] was above 30 µM throughout.
For `CN1C(C(=O)Nc2ccccn2)=C(O)c2sc(Cl)cc2S1(=O)=O` [LORNOXICAM], the AC50 in experiment [1] is 32 µM; in experiment [2], above 30 µM; in experiment [3] it was above 30 µM; in experiment [4], above 10 µM; in experiment [5] it was above 10 µM; in experiment [6] it was above 10 µM. The concentration at half-maximal activity (AC50) in experiment [7] was above 30 µM; in experiment [8] it was above 30 µM; in [9], above 10 µM; in [10] it was above 10 µM; in experiment [11] it was above 10 µM; in experiment [12], above 30 µM. Moreover, the AC50 in experiment [13] is above 30 µM; in [14] it was above 10 µM; in experiment [15], above 30 µM; in [16] it was above 30 µM; in experiment [17] it was above 30 µM.
